PubChem BioAssay AID2060611 (Molecular Pharmacology Branch, DTP, NCI, 2025)

Test system: 628569-122-R-J1-PDC complex spheroid viability
Test: Anticancer human tumor 628569-122-R-J1-PDC patient-derived head and neck squamous carcinoma cell line growth inhibition [CLK]
Conditions: for IC50: curve of first compound; for viability, T/C: stronger effect = lower value; active = viability on the fitted dose curve at most 10% of control; inactive = the rest
Method in brief: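 Multi-cell-type spheroids combined patient-derived tumor cells with HUVEC endothelial cells and human mesenchymal stem cells. Paired agents were dosed in half-log steps down from about clinical Cmax, or from 10 microM where Cmax was unknown.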
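Note: spheroids exposed to agents for seven days before readout.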
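Throughout, for viability, T/C: 100% = DMSO vehicle control viability.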

C=CC(=O)Nc1cc(Nc2nccc(-c3cn(C)c4ccccc34)n2)c(OC)cc1N(C)CCN(C)C + CNC(=O)c1ccc(Nc2nc(OC3CCCC3)c3c(-c4ccc5nc(C)oc5c4)c[nH]c3n2)c(OC)c1
inactive: viability, T/C (second compound 0.0316 µM, first compound 0.000949 µM) 81.8% | viability, T/C (second compound 0.0316 µM, first compound 0.003 µM) 98.1% | viability, T/C (second compound 0.0316 µM, first compound 0.00949 µM) 86.1% | viability, T/C (second compound 0.0316 µM, first compound 0.03 µM) 84.2% | viability, T/C (second compound 0.0316 µM, first compound 0.0949 µM) 68.1% | viability, T/C (second compound 0.0316 µM, first compound 0.3 µM) 53.7% | viability, T/C (second compound 0.1 µM, first compound 0.000949 µM) 63% | viability, T/C (second compound 0.1 µM, first compound 0.003 µM) 56.2% | viability, T/C (second compound 0.1 µM, first compound 0.00949 µM) 52.4% | viability, T/C (second compound 0.1 µM, first compound 0.03 µM) 49% | viability, T/C (second compound 0.1 µM, first compound 0.0949 µM) 49.6% | viability, T/C (second compound 0.1 µM, first compound 0.3 µM) 37.6% | viability, T/C (second compound 0.316 µM, first compound 0.000949 µM) 50.7% | viability, T/C (second compound 0.316 µM, first compound 0.003 µM) 55.7% | viability, T/C (second compound 0.316 µM, first compound 0.00949 µM) 49% | viability, T/C (second compound 0.316 µM, first compound 0.03 µM) 49.5% | viability, T/C (second compound 0.316 µM, first compound 0.0949 µM) 41.5% | viability, T/C (second compound 0.316 µM, first compound 0.3 µM) 23.9% | viability, T/C (second compound 1 µM, first compound 0.000949 µM) 49.1% | viability, T/C (second compound 1 µM, first compound 0.003 µM) 51.4% | viability, T/C (second compound 1 µM, first compound 0.00949 µM) 38.8% | viability, T/C (second compound 1 µM, first compound 0.03 µM) 42.1% | viability, T/C (second compound 1 µM, first compound 0.0949 µM) 36.6% | viability, T/C (second compound 1 µM, first compound 0.3 µM) 18.9% | viability, T/C (second compound 3.16 µM, first compound 0.000949 µM) 43.1% | viability, T/C (second compound 3.16 µM, first compound 0.003 µM) 48.9% | viability, T/C (second compound 3.16 µM, first compound 0.00949 µM) 39.3% | viability, T/C (second compound 3.16 µM, first compound 0.03 µM) 44.2% | viability, T/C (second compound 3.16 µM, first compound 0.0949 µM) 23.7% | viability, T/C (second compound 3.16 µM, first compound 0.3 µM) 13.7% | viability, T/C (second compound 10 µM, first compound 0.000949 µM) 46.5% | viability, T/C (second compound 10 µM, first compound 0.003 µM) 40.6% | viability, T/C (second compound 10 µM, first compound 0.00949 µM) 46.8% | viability, T/C (second compound 10 µM, first compound 0.03 µM) 45% | viability, T/C (second compound 10 µM, first compound 0.0949 µM) 25.8% | viability, T/C (second compound 10 µM, first compound 0.3 µM) 12%
17.9 nM: IC50 (second compound 0.316 µM)
< 0.949 nM: IC50 (second compound 1 µM) | IC50 (second compound 3.16 µM) | IC50 (second compound 10 µM)
26.9 nM: IC50 (second compound 0.1 µM)
> 300 nM: IC50 (second compound 0.0316 µM)
